The results in this text go back to ChEMBL document CHEMBL4616644, “Furofuranone Lignans from Leucophyllum ambiguum” (J Nat Prod, 2020).

A word on the inhibition: it is the drop in the measured response relative to a control, in per cent. Usually IC50 stands for the midpoint of a concentration-inhibition curve. Higher therefore signals weaker potency.

For the first assay, the target named is T1, Acetylcholinesterase (Homo sapiens, UniProt P22303). The assay is described as follows: Inhibition of acetylcholinesterase (unknown origin) at 0.01 to 100 uM using acetylthiocholine as substrate preincubated for 30 mins followed by substrate addition and measured after 2 mins by Ellman's method relative to control. A general note: Ellman's reagent forms a yellow product with free thiols.
T1 sequence (P22303 whole entry): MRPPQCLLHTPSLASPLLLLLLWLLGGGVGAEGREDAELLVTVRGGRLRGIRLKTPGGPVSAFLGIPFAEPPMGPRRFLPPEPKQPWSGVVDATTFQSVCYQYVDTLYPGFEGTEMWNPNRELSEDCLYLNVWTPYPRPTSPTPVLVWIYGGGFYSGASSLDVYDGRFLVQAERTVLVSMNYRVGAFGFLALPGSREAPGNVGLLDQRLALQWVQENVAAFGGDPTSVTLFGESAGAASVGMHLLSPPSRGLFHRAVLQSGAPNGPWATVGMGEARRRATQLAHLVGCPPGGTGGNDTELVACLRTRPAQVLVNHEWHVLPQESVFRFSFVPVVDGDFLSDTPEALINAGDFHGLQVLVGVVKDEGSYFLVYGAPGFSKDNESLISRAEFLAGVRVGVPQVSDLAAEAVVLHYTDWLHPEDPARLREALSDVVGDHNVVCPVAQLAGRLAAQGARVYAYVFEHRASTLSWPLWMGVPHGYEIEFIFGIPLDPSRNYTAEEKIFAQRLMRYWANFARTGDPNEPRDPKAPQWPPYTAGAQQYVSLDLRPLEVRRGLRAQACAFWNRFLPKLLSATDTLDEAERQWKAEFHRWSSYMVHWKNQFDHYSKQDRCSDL
In turn, `COc1ccc([C@H]2O[C@@H](O)[C@H]3[C@@H]2C(=O)O[C@@H]3c2ccc(OC)c(OC)c2)cc1OC` displayed an inhibition greater than 70%.
For `COc1ccc([C@H](O)[C@H](N)C(=O)O)cc1OC`, the inhibition was greater than 70%.
With `COc1cc([C@H]2OC[C@H]3[C@@H]2CO[C@@H]3c2cc(OC)c(OC)c(OC)c2)cc(OC)c1OC`, the inhibition was 65%.
Still for that read-out and setting: as for `COc1ccc([C@H]2OC[C@H]3[C@@H]2CO[C@@H]3c2cc(OC)c(OC)c(OC)c2)cc1OC`, the figure is greater than 90%; as for `COc1ccc([C@H]2OC[C@H]3[C@@H]2C(=O)O[C@@H]3c2ccc3c(c2)OCO3)cc1OC`, greater than 70%.
The same measure, in the same setting: as for `COc1cc([C@H]2OC[C@H]3[C@@H]2CO[C@@H]3c2cc(OC)c3c(c2)OCO3)cc(OC)c1OC`, the figure is 81%.
Compound `COc1ccc([C@H]2OC(=O)[C@H]3[C@@H]2C(=O)O[C@@H]3c2ccc3c(c2)OCO3)cc1OC` gave an inhibition greater than 90%.
Same read-out and setting: as for `COc1ccc([C@H]2O[C@@H](O)[C@H]3[C@@H]2C(=O)O[C@@H]3c2cc(OC)c3c(c2)OCO3)cc1OC`, the figure is greater than 70%.

The next assay concerns the target T1, Acetylcholinesterase. The assay is described as follows: Inhibition of acetylcholinesterase (unknown origin) using acetylthiocholine as substrate preincubated for 30 mins followed by substrate addition and measured after 2 mins by Ellman's method.
`COc1ccc([C@H]2O[C@@H](O)[C@H]3[C@@H]2C(=O)O[C@@H]3c2ccc(OC)c(OC)c2)cc1OC` came in with an IC50 of 0.028 µM.
Compound `COc1ccc([C@H](O)[C@H](N)C(=O)O)cc1OC` returned an IC50 of 0.001 µM. This IC50 is about 28-fold lower than that of the compound before.
Take `COc1cc([C@H]2OC[C@H]3[C@@H]2CO[C@@H]3c2cc(OC)c(OC)c(OC)c2)cc(OC)c1OC`: inhibition was half-maximal at 0.616 µM (IC50).
On the same count and under the same terms, the same measure for `COc1ccc([C@H]2OC[C@H]3[C@@H]2CO[C@@H]3c2cc(OC)c(OC)c(OC)c2)cc1OC`: 0.903 µM; for `COc1ccc([C@H]2OC[C@H]3[C@@H]2C(=O)O[C@@H]3c2ccc3c(c2)OCO3)cc1OC`: 2.23 µM.
Same read-out and setting: as for `COc1cc([C@H]2OC[C@H]3[C@@H]2CO[C@@H]3c2cc(OC)c3c(c2)OCO3)cc(OC)c1OC`, the figure is 0.46 µM.
With `COc1ccc([C@H]2OC(=O)[C@H]3[C@@H]2C(=O)O[C@@H]3c2ccc3c(c2)OCO3)cc1OC`, the IC50 came to 0.158 µM.
Take `COc1ccc([C@H]2O[C@@H](O)[C@H]3[C@@H]2C(=O)O[C@@H]3c2cc(OC)c3c(c2)OCO3)cc1OC`: half-maximal inhibition (IC50) was put at 0.003 µM.
